Measured values taken from the supplement of paper PMC10307832.

How the values were obtained:
Assay in all cases: relative viability (nuclei count vs DMSO), 5 days (fraction); higher = more cells survive
[1] = compound: CCC1=CN=CN=C1N2CCN(CC2)CC3=NC4=C(N3)C=C(C=C4)C(F)(F)F + CC(C)C[C@H](NC(=O)[C@H](Cc1ccccc1)NC(=O)c1cnccn1)B(O)O [Bortezomib] (partner 0.002 µM)
Outline: (§1)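 Lung cancer cell lines in 1536-well plates were dosed by pin tool the day after seeding, either with one drug alone or with a fixed anchor-drug dose plus five library-drug doses (not always all listed) in √10 steps. After 5 days, cells were fixed and their nuclei stained in one step (final 0.05% Triton X-100, 1% formaldehyde, 1 ug/ml Hoechst), then counted on 4× images. Relative viability is the nuclei count in treated wells divided by that in vehicle wells. Values are medians of duplicate plates.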

[2] = compound: CCn1c(-c2nonc2N)nc2cnc(Oc3cccc(NC(=O)c4ccc(OCCN5CCOCC5)cc4)c3)cc21 + Nc1ncn([C@H]2C[C@H](O)[C@@H](CO)O2)c(=O)n1 [Decitabine] (partner 2 µM)
Outline: as §1

[3] = compound: CCC1=CN=CN=C1N2CCN(CC2)CC3=NC4=C(N3)C=C(C=C4)C(F)(F)F + C[C@@H](Oc1cc(-c2cnn(C3CCNCC3)c2)cnc1N)c1c(Cl)ccc(F)c1Cl [Crizotinib] (partner 1 µM)
Outline: as §1

Mirin + Luminespib = compound: N=C1NC(=O)/C(=C/c2ccc(O)cc2)S1 [Mirin] + CCNC(=O)c1noc(-c2cc(C(C)C)c(O)cc2O)c1-c1ccc(CN2CCOCC2)cc1 [Luminespib] (partner 0.01 µM)
Outline: as §1

Row | Cell Line | relative viability ([1]; first compound 0.04 µM) | relative viability ([1]; first compound 0.1265 µM) | relative viability ([1]; first compound 0.4 µM) | relative viability ([1]; first compound 1.265 µM) | relative viability ([1]; first compound 4 µM) | relative viability ([2]; first compound 0.04 µM) | relative viability ([2]; first compound 0.1265 µM) | relative viability ([2]; first compound 0.4 µM) | relative viability ([2]; first compound 1.265 µM) | relative viability ([2]; first compound 4 µM) | relative viability ([3]; first compound 0.04 µM) | relative viability ([3]; first compound 0.1265 µM) | relative viability ([3]; first compound 0.4 µM) | relative viability ([3]; first compound 1.265 µM) | relative viability ([3]; first compound 4 µM) | relative viability (Mirin + Luminespib; first compound 0.25 µM) | relative viability (Mirin + Luminespib; first compound 0.7906 µM) | relative viability (Mirin + Luminespib; first compound 2.5 µM) | relative viability (Mirin + Luminespib; first compound 7.906 µM) | relative viability (Mirin + Luminespib; first compound 25 µM)
1 | NCI-H3122 | 1.11 | 0.968 | 1 | 1.03 | 1.05 | 0.429 | 0.428 | 0.49 | 0.401 | 0.42 | 0.262 | 0.264 | 0.318 | 0.531 | 0.469 | 0.0805 | 0.0865 | 0.0952 | 0.0621 | 0.0807
2 | NCI-H2023 | 1.04 | 1.03 | 0.964 | 0.837 | 1.17 | 0.232 | 0.231 | 0.216 | 0.173 | 0.199 | 0.712 | 0.655 | 0.713 | 0.713 | 1.07 | 0.746 | 0.862 | 0.804 | 0.763 | 0.64
3 | PC-14 | 0.938 | 0.815 | 0.856 | 0.848 | 0.935 | 0.238 | 0.252 | 0.217 | 0.213 | 0.286 | 1.02 | 0.781 | 0.976 | 0.915 | 1.06 | 0.177 | 0.142 | 0.191 | 0.187 | 0.144
4 | NCI-H727 | 0.998 | 0.689 | 0.876 | – | 0.744 | – | 1.07 | 0.676 | 0.662 | 0.973 | 0.986 | 0.863 | 0.712 | – | 0.919 | 0.515 | 0.307 | 0.453 | 0.265 | 0.316
5 | NCI-H1734 | 0.919 | 0.853 | 0.907 | – | 0.854 | 0.574 | 0.504 | 0.515 | 0.459 | 0.393 | 0.655 | 0.679 | 0.751 | – | 1.12 | 0.191 | 0.182 | 0.21 | 0.208 | 0.217
